According to ChEMBL document CHEMBL5465560, “Selectivity Literature for EUbOPEN Chemogenomic Library” (2024):

How the values were obtained:
[1] = molecular target: Mitogen-activated protein kinase kinase kinase 4 (Homo sapiens) (UniProt Q9Y6R4); settings: at 10 µM
[2] = molecular target: Ribosomal protein S6 kinase alpha-5 (Homo sapiens) (UniProt O75582); experiment: Selectivity interaction (Kinase panel (DSF assay)) EUB0001558a RPS6KA5
[3] = molecular target: Serine/threonine-protein kinase PLK3 (Homo sapiens, UniProt Q9H4B4); experiment: Selectivity interaction (KinomeScan (DiscoverX)) EUB0000229b PLK3; settings: at 10 µM
[4] = molecular target: T1, Testis-specific serine/threonine-protein kinase 2 (Homo sapiens) (UniProt Q96PF2); experiment: Selectivity interaction (Upstate Kinase Profiler service (Millipore)) EUB0000056c TSSK2; settings: at 1 µM
T1 sequence (whole entry): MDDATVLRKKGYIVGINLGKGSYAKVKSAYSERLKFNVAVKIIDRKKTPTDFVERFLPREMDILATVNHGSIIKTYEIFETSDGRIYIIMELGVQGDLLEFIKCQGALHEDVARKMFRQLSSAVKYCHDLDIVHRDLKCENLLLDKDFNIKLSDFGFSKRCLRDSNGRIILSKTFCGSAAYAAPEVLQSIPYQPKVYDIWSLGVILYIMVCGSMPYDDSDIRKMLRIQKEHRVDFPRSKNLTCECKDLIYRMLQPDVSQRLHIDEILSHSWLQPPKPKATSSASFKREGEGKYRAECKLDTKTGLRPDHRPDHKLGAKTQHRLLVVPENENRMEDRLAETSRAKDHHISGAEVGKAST

[5] = test system: Phosphatidylinositol 4,5-bisphosphate 3-kinase catalytic subunit alpha isoform (Homo sapiens), P42336 [M1043I]; experiment: (§1) Selectivity interaction (KinomeScan (DiscoverX)) EUB0001079a PIK3CA; settings: at 1 µM
[6] = test system: Phosphatidylinositol 4,5-bisphosphate 3-kinase catalytic subunit alpha isoform (Homo sapiens), P42336 [Q546K]; experiment: as §1; settings: at 1 µM
[7] = test system: Phosphatidylinositol 4,5-bisphosphate 3-kinase catalytic subunit alpha isoform (Homo sapiens), P42336 [E542K]; experiment: as §1; settings: at 1 µM
[8] = test system: Phosphatidylinositol 4,5-bisphosphate 3-kinase catalytic subunit alpha isoform (Homo sapiens), P42336 [E545K]; experiment: as §1; settings: at 1 µM
[9] = test system: Phosphatidylinositol 4,5-bisphosphate 3-kinase catalytic subunit alpha isoform (Homo sapiens), P42336 [I800L]; experiment: as §1; settings: at 1 µM
[10] = molecular target: Phosphatidylinositol 4,5-bisphosphate 3-kinase catalytic subunit alpha isoform (Homo sapiens) (UniProt P42336); experiment: as §1; settings: at 1 µM
[11] = test system: Phosphatidylinositol 4,5-bisphosphate 3-kinase catalytic subunit alpha isoform (Homo sapiens), P42336 [H1047L]; experiment: as §1; settings: at 1 µM
[12] = test system: Phosphatidylinositol 4,5-bisphosphate 3-kinase catalytic subunit alpha isoform (Homo sapiens), P42336 [H1047Y]; experiment: as §1; settings: at 1 µM
[13] = test system: Phosphatidylinositol 4,5-bisphosphate 3-kinase catalytic subunit alpha isoform (Homo sapiens), P42336 [C420R]; experiment: as §1; settings: at 1 µM
[14] = test system: Phosphatidylinositol 4,5-bisphosphate 3-kinase catalytic subunit alpha isoform (Homo sapiens), P42336 [E545A]; experiment: as §1; settings: at 1 µM
[15] = molecular target: Casein kinase II subunit alpha (Homo sapiens, UniProt P68400); experiment: Selectivity interaction (Millipore kinase profiler) EUB0000124b CSNK2A1; settings: at 10 µM
[16] = molecular target: Interferon-induced, double-stranded RNA-activated protein kinase (Homo sapiens) (UniProt P19525); settings: at 10 µM
[17] = molecular target: Cyclin-dependent kinase 14 (Homo sapiens) (UniProt O94921); experiment: Selectivity interaction (ActivX KiNativ screen (kinase selectivity in THP-1 cell lysates)) EUB0000639a CDK14; type: subcellular; settings: lysate, at 5 µM
Adenosine receptor A2a = Adenosine receptor A2a (Homo sapiens, UniProt P29274); experiment: Selectivity interaction (Panel of kinases, GPCRs, ion channels and transporters (enzymatic assay)) EUB0000223bCl ADORA2A
[18] = molecular target: Platelet-derived growth factor receptor alpha (Homo sapiens, UniProt P16234); experiment: Selectivity interaction (KinomeScan (DiscoverX)) EUB0000607a PDGFRA; settings: at 10 µM
[19] = test system: Epidermal growth factor receptor (Homo sapiens), P00533 [UNDEFINED MUTATION]; experiment: Selectivity interaction (KinomeScan (DiscoverX)) EUB0001049a EGFR; settings: at 1 µM
[20] = molecular target: Serine/threonine-protein kinase 32B (Homo sapiens) (UniProt Q9NY57); experiment: Selectivity interaction (KinomeScan (DiscoverX)) EUB0000595a STK32B; settings: at 10 µM
[21] = molecular target: Protein-tyrosine kinase 2-beta (Homo sapiens) (UniProt Q14289); experiment: Selectivity interaction (KinomeScan (DiscoverX)) EUB0000045b PTK2B
[22] = molecular target: T2, Serine/threonine-protein kinase D1 (Homo sapiens) (UniProt Q15139); experiment: Selectivity interaction (KinomeScan (DiscoverX)) EUB0000045b PRKD1
T2 sequence (whole entry): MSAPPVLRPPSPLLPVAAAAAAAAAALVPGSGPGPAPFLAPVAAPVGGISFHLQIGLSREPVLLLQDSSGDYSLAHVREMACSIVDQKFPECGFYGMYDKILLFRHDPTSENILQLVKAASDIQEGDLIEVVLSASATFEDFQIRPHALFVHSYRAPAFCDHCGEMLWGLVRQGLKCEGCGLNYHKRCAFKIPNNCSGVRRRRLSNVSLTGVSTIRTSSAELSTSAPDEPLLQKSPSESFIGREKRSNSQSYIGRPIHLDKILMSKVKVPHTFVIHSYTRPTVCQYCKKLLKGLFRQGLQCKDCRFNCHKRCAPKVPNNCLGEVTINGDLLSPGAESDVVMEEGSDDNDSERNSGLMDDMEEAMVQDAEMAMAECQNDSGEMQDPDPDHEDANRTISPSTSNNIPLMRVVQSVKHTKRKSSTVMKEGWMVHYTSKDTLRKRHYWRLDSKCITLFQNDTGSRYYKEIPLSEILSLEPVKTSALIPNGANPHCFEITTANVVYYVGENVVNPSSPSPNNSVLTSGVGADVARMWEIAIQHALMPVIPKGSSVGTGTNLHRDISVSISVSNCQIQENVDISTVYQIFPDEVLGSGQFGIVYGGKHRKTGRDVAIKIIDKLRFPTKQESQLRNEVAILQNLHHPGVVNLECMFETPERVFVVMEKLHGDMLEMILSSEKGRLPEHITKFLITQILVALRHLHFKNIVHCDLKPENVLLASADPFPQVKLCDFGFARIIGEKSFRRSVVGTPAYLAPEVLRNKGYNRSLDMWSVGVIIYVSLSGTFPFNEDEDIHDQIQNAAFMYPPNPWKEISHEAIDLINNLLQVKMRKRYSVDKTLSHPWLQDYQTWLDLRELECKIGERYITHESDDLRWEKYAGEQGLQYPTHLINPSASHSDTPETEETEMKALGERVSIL

[23] = molecular target: RAC-gamma serine/threonine-protein kinase (Homo sapiens, UniProt Q9Y243); experiment: Selectivity interaction (Ambit KINOMEscan and KiNATiv profiling in Jurkat cells) EUB0000090b AKT3; type: cell-based; settings: at 1 µM
[24] = molecular target: Cyclin-dependent kinase 5 (Homo sapiens, UniProt Q00535); experiment: Selectivity interaction (ActivX KiNativ screen (ex vivo kinase selectivity in human PBMCs)) EUB0001619a CDK5; type: cell-based; settings: PBMC, at 1 µM

Chain of Protein-tyrosine kinase 2-beta (Homo sapiens) (Q14289 whole entry, looked up): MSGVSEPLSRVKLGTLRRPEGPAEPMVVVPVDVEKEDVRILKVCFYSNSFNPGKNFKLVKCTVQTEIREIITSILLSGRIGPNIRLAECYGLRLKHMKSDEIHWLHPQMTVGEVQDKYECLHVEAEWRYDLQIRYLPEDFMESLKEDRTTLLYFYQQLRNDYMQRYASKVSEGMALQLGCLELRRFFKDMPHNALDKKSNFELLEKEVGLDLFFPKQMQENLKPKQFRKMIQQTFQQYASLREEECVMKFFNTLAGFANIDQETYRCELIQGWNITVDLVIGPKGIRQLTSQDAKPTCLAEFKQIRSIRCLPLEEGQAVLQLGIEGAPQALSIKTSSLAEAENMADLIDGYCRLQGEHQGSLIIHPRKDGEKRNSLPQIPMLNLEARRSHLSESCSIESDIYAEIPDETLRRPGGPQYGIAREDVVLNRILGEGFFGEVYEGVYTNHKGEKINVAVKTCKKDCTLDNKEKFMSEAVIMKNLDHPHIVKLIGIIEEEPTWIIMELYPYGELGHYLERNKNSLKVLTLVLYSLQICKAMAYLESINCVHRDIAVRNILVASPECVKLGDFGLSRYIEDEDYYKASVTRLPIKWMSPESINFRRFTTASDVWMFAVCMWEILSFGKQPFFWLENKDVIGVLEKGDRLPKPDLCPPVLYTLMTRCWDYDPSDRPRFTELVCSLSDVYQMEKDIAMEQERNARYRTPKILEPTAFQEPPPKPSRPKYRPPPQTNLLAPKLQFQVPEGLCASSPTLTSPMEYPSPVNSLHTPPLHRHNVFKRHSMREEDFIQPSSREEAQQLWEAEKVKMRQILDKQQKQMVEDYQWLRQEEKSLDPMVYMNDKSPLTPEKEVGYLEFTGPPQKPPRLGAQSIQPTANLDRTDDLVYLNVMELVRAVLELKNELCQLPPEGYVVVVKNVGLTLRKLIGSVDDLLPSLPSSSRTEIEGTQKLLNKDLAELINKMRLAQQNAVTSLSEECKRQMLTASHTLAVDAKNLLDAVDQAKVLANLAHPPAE
Chain of Phosphatidylinositol 4,5-bisphosphate 3-kinase catalytic subunit alpha isoform (Homo sapiens), P42336 [I800L] (P42336 whole entry I800L, canonical isoform): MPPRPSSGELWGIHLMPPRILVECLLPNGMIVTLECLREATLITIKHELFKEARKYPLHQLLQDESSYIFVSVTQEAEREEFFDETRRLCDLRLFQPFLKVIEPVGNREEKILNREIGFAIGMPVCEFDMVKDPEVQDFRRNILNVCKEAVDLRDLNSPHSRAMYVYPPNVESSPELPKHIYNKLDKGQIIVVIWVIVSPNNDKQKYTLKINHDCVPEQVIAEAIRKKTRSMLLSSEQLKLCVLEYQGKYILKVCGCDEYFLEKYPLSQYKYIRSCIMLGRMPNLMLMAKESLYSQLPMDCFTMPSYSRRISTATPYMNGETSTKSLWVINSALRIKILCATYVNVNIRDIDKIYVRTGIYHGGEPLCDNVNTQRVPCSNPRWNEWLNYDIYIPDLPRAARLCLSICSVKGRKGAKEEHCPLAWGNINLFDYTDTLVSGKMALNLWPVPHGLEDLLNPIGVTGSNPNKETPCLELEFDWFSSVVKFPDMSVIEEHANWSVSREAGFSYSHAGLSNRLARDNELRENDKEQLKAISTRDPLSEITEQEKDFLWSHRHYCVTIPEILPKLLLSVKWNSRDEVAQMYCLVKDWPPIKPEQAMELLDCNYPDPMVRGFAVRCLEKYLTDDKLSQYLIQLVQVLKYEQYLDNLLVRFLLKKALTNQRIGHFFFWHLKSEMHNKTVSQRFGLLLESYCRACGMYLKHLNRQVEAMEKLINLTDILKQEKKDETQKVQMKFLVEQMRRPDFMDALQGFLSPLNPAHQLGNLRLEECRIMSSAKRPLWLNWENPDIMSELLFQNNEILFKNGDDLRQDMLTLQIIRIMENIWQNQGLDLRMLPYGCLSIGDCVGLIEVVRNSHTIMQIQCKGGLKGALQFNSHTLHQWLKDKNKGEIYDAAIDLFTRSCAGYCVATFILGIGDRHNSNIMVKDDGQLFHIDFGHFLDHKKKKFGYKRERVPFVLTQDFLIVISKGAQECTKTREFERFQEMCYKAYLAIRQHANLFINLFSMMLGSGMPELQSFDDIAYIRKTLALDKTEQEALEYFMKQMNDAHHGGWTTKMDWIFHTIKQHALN
Chain of Epidermal growth factor receptor (Homo sapiens), P00533 [UNDEFINED MUTATION] (P00533 whole entry, looked up, change not shown): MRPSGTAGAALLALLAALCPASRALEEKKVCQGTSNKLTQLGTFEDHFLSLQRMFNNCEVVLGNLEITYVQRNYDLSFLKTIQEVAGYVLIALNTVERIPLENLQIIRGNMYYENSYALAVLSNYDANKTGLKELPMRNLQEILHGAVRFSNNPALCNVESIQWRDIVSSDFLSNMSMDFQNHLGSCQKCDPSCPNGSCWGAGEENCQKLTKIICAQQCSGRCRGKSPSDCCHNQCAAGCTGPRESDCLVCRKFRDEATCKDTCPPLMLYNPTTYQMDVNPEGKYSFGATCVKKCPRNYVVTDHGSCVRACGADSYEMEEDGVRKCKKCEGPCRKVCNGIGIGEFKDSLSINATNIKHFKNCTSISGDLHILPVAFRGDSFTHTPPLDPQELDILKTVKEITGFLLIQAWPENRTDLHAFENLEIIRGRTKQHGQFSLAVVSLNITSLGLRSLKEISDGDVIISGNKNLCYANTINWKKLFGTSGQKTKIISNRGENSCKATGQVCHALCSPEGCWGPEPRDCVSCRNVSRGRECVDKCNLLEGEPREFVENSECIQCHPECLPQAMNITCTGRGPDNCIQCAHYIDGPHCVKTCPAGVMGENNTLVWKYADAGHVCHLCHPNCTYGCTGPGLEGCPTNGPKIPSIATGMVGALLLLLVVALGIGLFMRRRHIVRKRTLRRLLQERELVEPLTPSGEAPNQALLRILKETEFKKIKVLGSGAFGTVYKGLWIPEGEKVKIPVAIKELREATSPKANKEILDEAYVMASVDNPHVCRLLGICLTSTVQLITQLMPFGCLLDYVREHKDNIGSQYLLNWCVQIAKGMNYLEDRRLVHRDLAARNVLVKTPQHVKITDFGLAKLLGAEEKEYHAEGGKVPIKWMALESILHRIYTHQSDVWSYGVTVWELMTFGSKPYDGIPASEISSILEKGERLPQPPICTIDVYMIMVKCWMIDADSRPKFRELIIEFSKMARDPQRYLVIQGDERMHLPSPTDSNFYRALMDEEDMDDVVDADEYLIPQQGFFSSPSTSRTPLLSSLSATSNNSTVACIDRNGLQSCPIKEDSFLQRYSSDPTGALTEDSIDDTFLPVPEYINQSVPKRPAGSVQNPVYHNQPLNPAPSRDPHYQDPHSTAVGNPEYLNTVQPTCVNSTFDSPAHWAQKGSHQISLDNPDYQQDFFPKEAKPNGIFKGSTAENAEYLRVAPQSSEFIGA
Chain of Phosphatidylinositol 4,5-bisphosphate 3-kinase catalytic subunit alpha isoform (Homo sapiens), P42336 [C420R] (P42336 whole entry C420R, canonical isoform): as the sequence (P42336 whole entry I800L, canonical isoform) above, with C420R, L800I counted along it
Chain of Interferon-induced, double-stranded RNA-activated protein kinase (Homo sapiens) (P19525 whole entry): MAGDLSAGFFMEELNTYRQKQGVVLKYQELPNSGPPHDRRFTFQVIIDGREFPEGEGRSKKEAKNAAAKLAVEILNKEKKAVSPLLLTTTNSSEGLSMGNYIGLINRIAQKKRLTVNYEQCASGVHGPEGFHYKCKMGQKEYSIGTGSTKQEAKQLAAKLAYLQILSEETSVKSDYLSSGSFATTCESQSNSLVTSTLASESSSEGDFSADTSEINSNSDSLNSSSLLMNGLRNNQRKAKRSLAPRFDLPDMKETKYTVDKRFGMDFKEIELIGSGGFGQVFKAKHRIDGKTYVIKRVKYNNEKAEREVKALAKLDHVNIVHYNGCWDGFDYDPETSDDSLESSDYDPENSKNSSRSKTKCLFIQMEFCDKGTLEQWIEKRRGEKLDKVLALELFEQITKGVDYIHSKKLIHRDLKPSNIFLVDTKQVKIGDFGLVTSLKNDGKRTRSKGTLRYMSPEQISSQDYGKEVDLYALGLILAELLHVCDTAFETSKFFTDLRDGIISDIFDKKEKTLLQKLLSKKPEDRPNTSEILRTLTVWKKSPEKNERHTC

CCN(CC)CCCCNc1ncc2cc(-c3cc(OC)cc(OC)c3)c(NC(=O)NC(C)(C)C)nc2n1
% of control [1]: 100%

CC(C)(O)[C@H](F)CN1Cc2cc(NC(=O)c3cnn4cccnc34)c(N3CCOCC3)cc2C1=O
dTM [2]: 0.5 K

COc1cc(N(C)c2ccnc3ccc(C(F)(F)F)cc23)cc(OC)c1OC
% binding [3]: 74%

Cc1ccc(-c2ccc3c(ccc4sc5c(c43)NC[C@@H](C)NC5=O)n2)cn1
% of inhibition [4]: 4%

Nc1cnc(N2CCc3cc(S(=O)(=O)Nc4c(F)cc(Cl)cc4F)cc(N4CCCC4=O)c32)nc1 [TP-020n]
% of control [5]: 100% | % of control [6]: 78% | % of control [7]: 72% | % of control [8]: 100% | % of control [9]: 80% | % of control [10]: 76% | % of control [11]: 60% | % of control [12]: 100% | % of control [13]: 84% | % of control [14]: 100%

CC(=O)Nc1cccc(-n2c(=O)n(C3CC3)c(=O)c3c(Nc4ccc(I)cc4F)n(C)c(=O)c(C)c32)c1
% of control [15]: 101%

Cc1cc([C@@H](C)Nc2ccccc2C(=O)O)c2nc(N3CCOCC3)cc(=O)n2c1 [AZD-6482]
% of control [16]: 99%

CC[C@@H]1[C@H](F)C(=O)N[C@@H]1COc1nccc2cc(C(N)=O)c(OC)cc12 [ZIMLOVISERTIB]
% of inhibition [17]: 12.8%

COc1cc(C(=O)N2CC[C@@H](O)[C@@H](N)C2)cc2nc(-c3cc4ccccc4n3CC3CC3)n(C)c12
pXC50 (Adenosine receptor A2a): < 4.5 M

CNC(=O)Nc1ccc(-c2nc(N3CC4CCC(C3)O4)c3cnn(C4CCC5(CC4)OCCO5)c3n2)cc1
% of control [18]: 80%

COc1cc(Nc2nc(C)cc(-c3cnn4nc(OC)ccc34)n2)cc(C(F)(F)F)c1
% of control [19]: 53%

COCC(=O)NC/C=C/c1ccc2ncnc(Nc3ccc(Oc4ccc(C)nc4)c(C)c3)c2c1 [CP-724714]
% of control [20]: 92%

C=CC(=O)Nc1cc(-n2c(=O)ccc3cnc4ccc(-c5ccc(NS(C)(=O)=O)cc5)cc4c32)ccc1C
% of control ([21]; at 1 µM): 100% | % of control ([21]; at 10 µM): 92% | % of control ([22]; at 1 µM): 100% | % of control ([22]; at 10 µM): 84%

CN(C)C/C=C/C(=O)Nc1ccc(C(=O)N2CCCC(Nc3ncc(Cl)c(-c4c[nH]c5ccccc45)n3)C2)cc1 (configuration not stated)
% of control [23]: 96%

N#Cc1cccc(-c2c[nH]c3ncnc(N4CCOCC4)c23)c1
% of inhibition [24]: -9%
